How the values were obtained:
HCC1419 = experiment: GRmax, 72 h; higher = less effect;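 note: breast cell lines in 384-well plates, nine doses across a 10^4 range, Dye Drop imaging of viable cells vs DMSO and time-zero plates, GR 0 means no net growth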
HCC38 = experiment: GRmax, 72 h; higher = less effect;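 note: breast cell lines in 384-well plates, nine doses across a 10^4 range, Dye Drop imaging of viable cells vs DMSO and time-zero plates, GR 0 means no net growth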
SUM190PT = experiment: GRmax, 72 h; higher = less effect;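 note: breast cell lines in 384-well plates, nine doses across a 10^4 range, Dye Drop imaging of viable cells vs DMSO and time-zero plates, GR 0 means no net growth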
MDAMB175VII [1] = experiment: GRmax, 72 h; higher = less effect;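 note: breast cell lines in 384-well plates, nine doses across a 10^4 range, Dye Drop imaging of viable cells vs DMSO and time-zero plates, GR 0 means no net growth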
EVSAT = experiment: GRmax, 72 h; higher = less effect
MDAMB436 = experiment: GRmax, 72 h; higher = less effect
CAL851 = experiment: GRmax, 72 h; higher = less effect
BT549 = experiment: GRmax, 72 h; higher = less effect
PDX1258 = experiment: GRmax, 72 h; higher = less effect
MCF12A = experiment: area over the GR curve, 72 h; higher = more effect;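 note: Dye Drop or Deep Dye Drop imaging of viable cells in 384-well plates (Hoechst nuclei, LIVE/DEAD dye), nine half-log doses, GR normalized to DMSO controls and time-zero plates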
MDAMB175VII [2] = experiment: area over the GR curve, 72 h; higher = more effect;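 note: Dye Drop or Deep Dye Drop imaging of viable cells in 384-well plates (Hoechst nuclei, LIVE/DEAD dye), nine half-log doses, GR normalized to DMSO controls and time-zero plates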
HCC1395 = experiment: area over the GR curve, 72 h; higher = more effect;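 note: Dye Drop or Deep Dye Drop imaging of viable cells in 384-well plates (Hoechst nuclei, LIVE/DEAD dye), nine half-log doses, GR normalized to DMSO controls and time-zero plates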

SMILES	GRmax, 72 h (HCC1419) [GR]	GRmax, 72 h (HCC38) [GR]	GRmax, 72 h (SUM190PT) [GR]	GRmax, 72 h (MDAMB175VII [1]) [GR]	GRmax, 72 h (EVSAT) [GR]	GRmax, 72 h (MDAMB436) [GR]	GRmax, 72 h (CAL851) [GR]	GRmax, 72 h (BT549) [GR]	GRmax, 72 h (PDX1258) [GR]	area over the GR curve (MCF12A) [GR]	area over the GR curve (MDAMB175VII [2]) [GR]	area over the GR curve (HCC1395) [GR]	GRmax, 72 h (HCC1419; main component drawn) [GR]	GRmax, 72 h (HCC38; main component drawn) [GR]	GRmax, 72 h (MDAMB436; main component drawn) [GR]	GRmax, 72 h (CAL851; main component drawn) [GR]	GRmax, 72 h (BT549; main component drawn) [GR]	GRmax, 72 h (PDX1258; main component drawn) [GR]	area over the GR curve (HCC1395; main component drawn) [GR]
CNc1nc(-c2ccc3c(N)n[nH]c3c2)cc(N2C[C@@H](C(=O)NC3CCCCC3)CC[C@H]2C)n1 (max 10 µM)	0.442	0.767	0.236	-0.459	-0.049	0.811	0.506	0.666	0.644	0.0618	0.59	0.187	–	–	–	–	–	–	–
CCOc1cc2ncc(C#N)c(Nc3ccc(OCc4ccccn4)c(Cl)c3)c2cc1NC(=O)/C=C/CN(C)C [Neratinib/HKI272] (max 3.162 µM)	-0.501	0.457	0.42	-0.979	0.649	0.0162	-0.326	0.208	0.203	0.194	1.45	0.142	–	–	–	–	–	–	–
Cc1cc(C(C)Nc2ccccc2)c2nc(N3CCOCC3)cc(=O)n2c1 (configuration not stated) [TGX221] (max 10 µM)	0.794	0.952	0.989	0.886	0.331	0.722	0.99	0.81	0.997	-0.0153	-0.0733	0.0832	–	–	–	–	–	–	–
CN(C)C/C=C/C(=O)Nc1ccc(C(=O)Nc2cccc(Nc3cc(-c4c[nH]c5ccccc45)ncn3)c2)cc1 [THZ-P1-2] (max 10 µM)	-0.578	-0.509	-0.218	-0.765	0.76	-0.278	0.468	0.175	-0.891	0.0465	0.458	0.442	–	–	–	–	–	–	–
Cc1c(N)nc([C@H](CC(N)=O)NC[C@H](N)C(N)=O)nc1C(=O)N[C@H](C(=O)N[C@H](C)[C@@H](O)[C@H](C)C(=O)N[C@H](C(=O)NCCc1nc(-c2nc(C(=O)NCCC[S+](C)C)cs2)cs1)[C@@H](C)O)[C@@H](OC1OC(CO)C(O)C(O)C1OC1OC(CO)C(O)C(OC(N)=O)C1O)c1cnc[nH]1 (some centres not stated) [Bleomycin] (max 10 µM)	–	–	–	–	–	–	–	–	–	–	–	–	0.354	-0.232	-0.12	-0.107	-0.0141	0.0721	0.607
NC1(C(=O)N[C@@H](CCO)c2ccc(Cl)cc2)CCN(c2nc[nH]c3nccc2-3)CC1 [AZD5363] (max 10 µM)	0.536	0.731	0.243	-0.28	-0.441	0.728	0.592	0.557	0.321	0.142	0.622	0.5	–	–	–	–	–	–	–
COc1cc2nccc(Oc3ccc(NC(=O)C4(C(=O)Nc5ccc(F)cc5)CC4)cc3)c2cc1OC [Cabozantinib] (max 10 µM)	0.622	0.301	-0.0122	0.0863	0.654	0.0862	0.173	0.533	0.28	-0.0141	-0.124	0.0651	–	–	–	–	–	–	–
CN1CCN(CCOc2cc(OC3CCOCC3)c3c(Nc4c(Cl)ccc5c4OCO5)ncnc3c2)CC1 [Saracatinib/AZD0530] (max 10 µM)	-0.115	0.614	0.581	-0.935	0.0408	0.724	0.116	0.556	0.184	0.0317	0.762	0.111	–	–	–	–	–	–	–
CN(C)C/C=C/C(=O)Nc1ccc(C(=O)N2CCC[C@@H](Nc3ncc(Cl)c(-c4c[nH]c5ccccc45)n3)C2)cc1 [THZ531] (max 1 µM)	-0.294	-0.337	-0.725	-0.662	0.0226	0.018	-0.196	-0.349	-0.575	0.0965	0.567	0.37	–	–	–	–	–	–	–
O=C(CCCCCCC(=O)Nc1ccccc1)NO [Vorinostat] (max 10 µM)	-0.256	-0.285	-0.431	-0.867	-0.497	0.033	-0.183	0.113	-0.0232	0.0874	0.445	0.099	–	–	–	–	–	–	–
CO[C@H]1C[C@@H]2CC[C@@H](C)[C@@](O)(O2)C(=O)C(=O)N2CCCC[C@H]2C(=O)O[C@H]([C@H](C)C[C@@H]2CC[C@@H](OCCO)[C@H](OC)C2)CC(=O)[C@H](C)/C=C(\C)[C@@H](O)[C@@H](OC)C(=O)[C@H](C)C[C@H](C)/C=C/C=C/C=C/1C [Everolimus] (max 10 µM)	0.18	0.473	0.354	-0.189	0.354	0.615	0.371	0.52	0.631	0.273	1.14	0.555	–	–	–	–	–	–	–
CN(C)C(=O)c1cc2cnc(Nc3ccc(N4CCNCC4)cn3)nc2n1C1CCCC1 [LEE011/Ribociclib] (max 10 µM)	0.547	0.241	0.199	0.159	0.616	0.951	1.04	0.97	1.08	0.0926	0.8	0.323	–	–	–	–	–	–	–
CCNC(=O)c1noc(-c2cc(C(C)C)c(O)cc2O)c1-c1ccc(CN2CCOCC2)cc1 [Luminespib/NVP-AUY922] (max 1 µM)	-0.297	-0.209	-0.433	-0.455	-0.29	-0.0492	-0.384	-0.106	-0.29	0.619	0.774	0.617	–	–	–	–	–	–	–
COc1ccc2c(c1)[C@]1(C[C@H]1c1ccc3c(/C=C/c4ccc(CN5C[C@@H](C)O[C@@H](C)C5)cc4)n[nH]c3c1)C(=O)N2	0.32	-0.403	0.12	0.046	-0.0524	-0.226	-0.11	0.0324	-0.0552	0.499	0.589	0.709	–	–	–	–	–	–	–
CCc1cncnc1N1CCN(Cc2nc3ccc(C(F)(F)F)cc3[nH]2)CC1 (max 10 µM)	0.349	0.976	0.461	-0.426	0.711	0.194	1.02	0.744	0.775	-0.0039	0.314	0.0037	–	–	–	–	–	–	–
CC(C)Nc1cc(-c2c[nH]c(C(=O)N[C@H](CO)c3cccc(Cl)c3)c2)c(Cl)cn1 [BVD523] (max 10 µM)	0.637	0.371	0.237	-0.31	0.695	0.649	0.274	0.545	0.163	0.111	0.472	0.259	–	–	–	–	–	–	–

— the supplement of paper PMC9663587
